Data as given in patent US6683184B2, “Piperazine derivatives and process for the preparation thereof” (Samjin Pharmaceutical Co., Ltd., priority 1999, dated 2004).
In brackets after ≈: the same amount, converted by molar mass.

Columns and labels:
Type in all cases: cell-based
[1] = test system: A549 (human non-small lung cell); experiment: In vitro antitumor effect against human tumor cell lines, SRB assay, A549; conditions: A549 cells, 48 hours
Experimental: (§1) In vitro antitumor effect against human tumor cell lines.
(§2) a. Human solid tumor cell lines, A549(non-small lung cell), SKMEL-2(melanoma), HCT-15(colon), SKOV-3(ovarian), XF-498(CNS) were cultured at 37° C. in 5% CO2 incubators using RPMI 1640 media containing 10% FBS, while they were transfer-cultured successively once or twice per week. Cell cultures were dissolved in a solution of 0.25% trypsin and 3 mM CDTA PBS(−) and then cells were separated from media which the cells were sticked on.
(§3) b. 5×10^3˜2×10^4 cells were added into each well of 96-well plate and cultured in 5% CO2 incubator, at 37° C., for 24 hours.
(§4) c. Each sample drug was dissolved in a little DMSO and diluted with the used medium to a prescribed concentration for experiments, wherein the final concentration of DMSO was controlled below 0.5%.
(§5) d. Medium of each well cultured for 24 hours as above b. was removed by aspiration. Each 200 μl of drug samples prepared in c. was added into each well and the wells were cultured for 48 hours. Tz(time zero) plates were collected at the point of time drugs were added.
(§6) e. According to the SRB assay method, cell fixing with TCA, staining with 0.4% SRB solution, washing with 1% acetic acid and elution of dye with 10 mM Tris solution were carried out on Tz plates and culture-ended plates, whereby OD values were measured at 520 nm.
(§7) a. Time zero(Tz) value was determined with measuring the SRB protein amounts of the Tz plates collected at the point of time drugs were added.
(§8) b. Control value(C) was determined with the OD values of wells untreated with a drug.
(§9) c. Drug-treated test value(T) was determined with the OD values of drug-treated wells.
(§10) d. Effects of drugs were estimated with growth stimulation, net growth inhibition, net killing etc., being calculated from Tz, C and T.
(§11) e. If T≧Tz, cellular response function was calculated by 100×(T−Tz)/(C−Tz), and if T<Tz, by 100×(T−Tz)/Tz.

SKOV-3 (human ovarian) = experiment: In vitro antitumor effect against human tumor cell lines, SRB assay, SKOV-3; conditions: SK-OV-3 cells, 48 hours
Experimental: as §1, §2, §3, §4, §5, §6, §7, §8, §9, §10, §11

HCT-15 (human colon) = experiment: In vitro antitumor effect against human tumor cell lines, SRB assay, HCT-15; conditions: HCT 15 cells, 48 hours
Experimental: as §1, §2, §3, §4, §5, §6, §7, §8, §9, §10, §11

SKMEL-2 (human melanoma) = experiment: In vitro antitumor effect against human tumor cell lines, SRB assay, SKMEL-2; conditions: SK-MEL-2 cells, 48 hours
Experimental: as §1, §2, §3, §4, §5, §6, §7, §8, §9, §10, §11

XF 498 (human CNS) = experiment: In vitro antitumor effect against human tumor cell lines, SRB assay, XF 498; conditions: 48 hours; for ED50 XF-498: XF-498 cells
Experimental: as §1, §2, §3, §4, §5, §6, §7, §8, §9, §10, §11

| Compound | ED50 A 549 [1] | ED50 SK-OV-3 (SKOV-3 (human ovarian)) | ED50 HCT 15 (HCT-15 (human colon)) | ED50 SK-MEL-2 (SKMEL-2 (human melanoma)) | ED50 XF-498 (XF 498 (human CNS)) | IC50 ([1]; Homo sapiens, read-out: ED50 A 549) | IC50 (SKOV-3 (human ovarian); Homo sapiens, read-out: ED50 SK-OV-3) | IC50 (HCT-15 (human colon); Homo sapiens, read-out: ED50 HCT 15) | IC50 (SKMEL-2 (human melanoma); Homo sapiens, read-out: ED50 SK-MEL-2) | IC50 (XF 498 (human CNS); Homo sapiens, XF498, XF-498 cells, read-out: ED50 XF-498) |
| --- | --- | --- | --- | --- | --- | --- | --- | --- | --- | --- |
| COc1cc(C)c(C)cc1N=C(NO)N1CCN(c2ccccc2)CC1 [Example 177, N-Hydroxy-N′-(4,5-dimethyl-2-methoxyphenyl-1-yl)-(4-phenylpiperazin-1-yl)carboxyimidamide] | 0.6 ng/mL (≈ 0.00169 µM) | 0.8 ng/mL (≈ 0.00226 µM) | 0.1 ng/mL (≈ 0.000282 µM) | 0.3 ng/mL (≈ 0.000846 µM) | 0.4 ng/mL (≈ 0.00113 µM) | – | – | – | – | – |
| 1-[(5,6-Dichloroethyl-2-methoxypyrazin-3-yl)aminocarbonyl]-4-(3,5-dimethylphenyl)piperazine [Example 34] | 2.3 ng/mL | 3.8 ng/mL | 2.1 ng/mL | 0.3 ng/mL | 2.1 ng/mL | – | – | – | – | – |
| COc1cc(OC)cc(N2CCN(C(=Nc3cc(C(C)O)c(C)nc3OC)NO)CC2)c1 (stereo not shown) [Example 139, N-Hydroxy-N′-[5-(1-hydroxyethyl)-2-methoxy-6-methylpyridin-3-yl]-[4-(3,5-dimethoxyphenyl)piperazin-1-yl]carboxyimidamide] | 0.7 ng/mL (≈ 0.00157 µM) | 0.7 ng/mL (≈ 0.00157 µM) | 0.4 ng/mL (≈ 0.000898 µM) | 0.2 ng/mL (≈ 0.000449 µM) | 0.3 ng/mL (≈ 0.000673 µM) | – | – | – | – | – |
| COC(=O)c1cc(N=C(NO)N2CCN(c3cc(OC)cc(OC)c3)CC2)c(OC)nc1C [Example 118, N-Hydroxy-N′-(5-methoxycarbonyl-2-methoxy-6-methylpyridin-3-yl)-[4-(3,5-dimethoxyphenyl)piperazin-1-yl]carboxyimidamide] | 57 ng/mL (≈ 0.124 µM) | 32 ng/mL (≈ 0.0696 µM) | 0.2 ng/mL (≈ 0.000435 µM) | 19 ng/mL (≈ 0.0413 µM) | 17 ng/mL (≈ 0.037 µM) | – | – | – | – | – |
| COc1nc(C)c(C(C)=O)cc1N=C(NO)N1CCN(c2cc(C)cc(C)c2)CC1 [Example 132, N-Hydroxy-N′-(5-acetyl-2-methoxy-6-methylpyridin-3-yl)-[4-(3,5-dimethylphenyl)piperazin-1-yl]carboxyimidamide] | 11 ng/mL (≈ 0.0267 µM) | 7 ng/mL (≈ 0.017 µM) | 1 ng/mL (≈ 0.00243 µM) | 1 ng/mL (≈ 0.00243 µM) | 2 ng/mL (≈ 0.00486 µM) | – | – | – | – | – |
| COc1nc2ccccc2nc1N(C)C(=O)N1CCN(c2cc(C)cc(C)c2)CC1 [Example 55, 1-[(2-Methoxyquinoxalin-3-yl)N-methylaminocarbonyl]-4-(3,5-dimethylphenyl)piperazine] | – | – | – | – | – | 340 ng/mL (≈ 0.838 µM) | 490 ng/mL (≈ 1.21 µM) | 330 ng/mL (≈ 0.814 µM) | 220 ng/mL (≈ 0.543 µM) | 410 ng/mL (≈ 1.01 µM) |
| COc1nc2ccccc2nc1NC(=O)N1CCN(c2cccc(Br)c2)CC1 [Example 45, 1-[(2-Methoxyquinoxalin-3-yl)aminocarbonyl]-4-(3-bromop-henyl)piperazine] | 0.1 ng/mL (≈ 0.000226 µM) | 0.2 ng/mL (≈ 0.000452 µM) | 0.1 ng/mL (≈ 0.000226 µM) | <0.1 ng/mL | 0.2 ng/mL (≈ 0.000452 µM) | – | – | – | – | – |
| COc1nc(C)c(C(C)O)cc1N=C(NO)N1CCN(c2cc(C)cc(C)c2)CC1 (stereo not shown) [Example 138, N-Hydroxy-N′-[5-(1-hydroxyethyl)-2-methoxy-6-methylpyridin-3-yl]-[4-(3,5-dimethylphenyl)piperazin-1-yl]carboxyimidamide] | 74 ng/mL (≈ 0.179 µM) | 30 ng/mL (≈ 0.0725 µM) | 6 ng/mL (≈ 0.0145 µM) | 16 ng/mL (≈ 0.0387 µM) | 18 ng/mL (≈ 0.0435 µM) | – | – | – | – | – |
